Results taken from patent US10556888B2, “Pyrazole compounds or salts thereof, preparation methods therefor, herbicidal compositions and use thereof” (QINGDAO KINGAGROOT CHEMICAL COMPOUNDS CO., LTD, priority 2015, dated 2020).

Tests used:
[1] = test system: main crop (wheat, corn, rice, soybean, cotton, oilseed, millet and sorghum); assay: Post-emergence test experiment, main crops (Table 2); type: in vivo; parameters: key: Level 10: completely dead; Level 9: above 90% growth inhibition rate; Level 8: above 80% growth inhibition rate; Level 7: above 70% growth inhibition rate; Level 6: above 60% growth inhibition rate; Level 5: above 50% growth inhibition rate; Level 4: above 30% growth inhibition rate; Level 3: above 20% growth inhibition rate; Level 2: above 10% growth inhibition rate; Level 1: above 1-10% growth inhibition rate; Level 0: no effect; conditions: 30 g/ha, 3 weeks after spraying, greenhouse
Procedure, shortened: (§1)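 Weed and crop seeds (wheat, corn, rice, soybean, cotton, oilseed, millet, sorghum) grown in soil in greenhouse; sprayed at 2-3 leaf stage, 2-3 weeks after sowing, with compound in acetone/Tween 80/water. Effects assessed after 3 weeks further greenhouse culture.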

[2] = test system: Monocotyledonous and dicotyledonous weed; assay: Post-emergence test experiment, weed control effect (Table 2); type: in vivo; parameters: key to weed control effect, Setaria viridis (level) / weed control effect, Rorippa indica (level) / weed control effect, Abutilon theophrasti (level) / weed control effect, Echinochloa crus-galli (level) / weed control effect, Digitaria sanguinalis (level): Level 10: completely dead; Level 9: above 90% growth inhibition rate; Level 8: above 80% growth inhibition rate; Level 7: above 70% growth inhibition rate; Level 6: above 60% growth inhibition rate; Level 5: above 50% growth inhibition rate; Level 4: above 30% growth inhibition rate; Level 3: above 20% growth inhibition rate; Level 2: above 10% growth inhibition rate; Level 1: above 1-10% growth inhibition rate; Level 0: no effect; conditions: 30 g/ha, 3 weeks after spraying, greenhouse
Procedure, shortened: as §1

## C#CCOCc1c(S(C)(=O)=O)ccc(C(=O)c2c(C3CC3)nn(C)c2OC(=O)c2cn(C)nc2C)c1Cl [Compound 47]
[1]
  effect on crop, corn (level): 0
  effect on crop, rice (level): 3 (Level 3: above 20% growth inhibition rate)
  effect on crop, wheat (level): 0
[2]
  weed control effect, Abutilon theophrasti (level): 7 (Level 7: above 70% growth inhibition rate)
  weed control effect, Bidens pilosa (level): 7 (Level 7: above 70% growth inhibition rate)
  weed control effect, Digitaria sanguinalis (level): 7 (Level 7: above 70% growth inhibition rate)
  weed control effect, Echinochloa crus-galli (level): 10
  weed control effect, Rorippa indica (level): 10
  weed control effect, Setaria viridis (level): 9 (Level 9: above 90% growth inhibition rate)

## Cc1nn(C)cc1C(=O)Oc1c(C(=O)c2ccc(S(C)(=O)=O)c(COCC(F)(F)C(F)F)c2Cl)c(C2CC2)nn1C [Compound 48]
[1]
  effect on crop, corn (level): 0
  effect on crop, rice (level): 3 (Level 3: above 20% growth inhibition rate)
  effect on crop, wheat (level): 0
[2]
  weed control effect, Abutilon theophrasti (level): 7 (Level 7: above 70% growth inhibition rate)
  weed control effect, Bidens pilosa (level): 7 (Level 7: above 70% growth inhibition rate)
  weed control effect, Digitaria sanguinalis (level): 7 (Level 7: above 70% growth inhibition rate)
  weed control effect, Echinochloa crus-galli (level): 10
  weed control effect, Rorippa indica (level): 10
  weed control effect, Setaria viridis (level): 9 (Level 9: above 90% growth inhibition rate)

## Cc1nn(C)cc1C(=O)Oc1c(C(=O)c2ccc(S(C)(=O)=O)c(COCC(F)(F)F)c2Cl)c(C2CC2)nn1C [Compound 49]
[1]
  effect on crop, corn (level): 0
  effect on crop, rice (level): 3 (Level 3: above 20% growth inhibition rate)
  effect on crop, wheat (level): 0
[2]
  weed control effect, Abutilon theophrasti (level): 7 (Level 7: above 70% growth inhibition rate)
  weed control effect, Bidens pilosa (level): 7 (Level 7: above 70% growth inhibition rate)
  weed control effect, Digitaria sanguinalis (level): 7 (Level 7: above 70% growth inhibition rate)
  weed control effect, Echinochloa crus-galli (level): 10
  weed control effect, Rorippa indica (level): 10
  weed control effect, Setaria viridis (level): 9 (Level 9: above 90% growth inhibition rate)

## Cc1nn(C)cc1C(=O)Oc1c(C(=O)c2ccc(S(C)(=O)=O)c(COCC(F)F)c2Cl)c(C2CC2)nn1C [Compound 50]
[1]
  effect on crop, corn (level): 0
  effect on crop, rice (level): 3 (Level 3: above 20% growth inhibition rate)
  effect on crop, wheat (level): 0
[2]
  weed control effect, Abutilon theophrasti (level): 6 (Level 6: above 60% growth inhibition rate)
  weed control effect, Bidens pilosa (level): 7 (Level 7: above 70% growth inhibition rate)
  weed control effect, Digitaria sanguinalis (level): 8 (Level 8: above 80% growth inhibition rate)
  weed control effect, Echinochloa crus-galli (level): 10
  weed control effect, Rorippa indica (level): 10
  weed control effect, Setaria viridis (level): 9 (Level 9: above 90% growth inhibition rate)

## COCCCOCc1c(S(C)(=O)=O)ccc(C(=O)c2c(C3CC3)nn(C)c2OC(=O)c2cn(C)nc2C)c1Cl [Compound 52]
[1]
  effect on crop, corn (level): 1 (Level 1: above 1-10% growth inhibition rate)
  effect on crop, rice (level): 3 (Level 3: above 20% growth inhibition rate)
  effect on crop, wheat (level): 0
[2]
  weed control effect, Abutilon theophrasti (level): 7 (Level 7: above 70% growth inhibition rate)
  weed control effect, Bidens pilosa (level): 7 (Level 7: above 70% growth inhibition rate)
  weed control effect, Digitaria sanguinalis (level): 7 (Level 7: above 70% growth inhibition rate)
  weed control effect, Echinochloa crus-galli (level): 10
  weed control effect, Rorippa indica (level): 10
  weed control effect, Setaria viridis (level): 6 (Level 6: above 60% growth inhibition rate)

## COCCCOCc1c(S(C)(=O)=O)ccc(C(=O)c2cnn(C)c2OC(=O)c2cn(C)nc2C)c1Cl [Compound 53]
[1]
  effect on crop, corn (level): 1 (Level 1: above 1-10% growth inhibition rate)
  effect on crop, rice (level): 3 (Level 3: above 20% growth inhibition rate)
  effect on crop, wheat (level): 0
[2]
  weed control effect, Abutilon theophrasti (level): 7 (Level 7: above 70% growth inhibition rate)
  weed control effect, Bidens pilosa (level): 7 (Level 7: above 70% growth inhibition rate)
  weed control effect, Digitaria sanguinalis (level): 8 (Level 8: above 80% growth inhibition rate)
  weed control effect, Echinochloa crus-galli (level): 10
  weed control effect, Rorippa indica (level): 10
  weed control effect, Setaria viridis (level): 6 (Level 6: above 60% growth inhibition rate)

## CCOc1c(C(=O)Oc2c(C(=O)c3ccc(S(C)(=O)=O)c(COCC(F)(F)F)c3Cl)cnn2C)cnn1C [Compound 54]
[1]
  effect on crop, corn (level): 1 (Level 1: above 1-10% growth inhibition rate)
  effect on crop, rice (level): 3 (Level 3: above 20% growth inhibition rate)
  effect on crop, wheat (level): 0
[2]
  weed control effect, Abutilon theophrasti (level): 7 (Level 7: above 70% growth inhibition rate)
  weed control effect, Bidens pilosa (level): 7 (Level 7: above 70% growth inhibition rate)
  weed control effect, Digitaria sanguinalis (level): 7 (Level 7: above 70% growth inhibition rate)
  weed control effect, Echinochloa crus-galli (level): 10
  weed control effect, Rorippa indica (level): 10
  weed control effect, Setaria viridis (level): 10

## CCOc1c(C(=O)Oc2c(C(=O)c3ccc(S(C)(=O)=O)c(COCC(F)(F)F)c3Cl)c(C)nn2C)cnn1C [Compound 55]
[1]
  effect on crop, corn (level): 2 (Level 2: above 10% growth inhibition rate)
  effect on crop, rice (level): 3 (Level 3: above 20% growth inhibition rate)
  effect on crop, wheat (level): 0
[2]
  weed control effect, Abutilon theophrasti (level): 7 (Level 7: above 70% growth inhibition rate)
  weed control effect, Bidens pilosa (level): 7 (Level 7: above 70% growth inhibition rate)
  weed control effect, Digitaria sanguinalis (level): 10
  weed control effect, Echinochloa crus-galli (level): 10
  weed control effect, Rorippa indica (level): 10
  weed control effect, Setaria viridis (level): 10

## C#CCOCc1c(S(C)(=O)=O)ccc(C(=O)c2c(C)nn(C)c2OC(=O)c2cnn(C)c2OCC)c1Cl [Compound 56]
[1]
  effect on crop, corn (level): 0
  effect on crop, rice (level): 3 (Level 3: above 20% growth inhibition rate)
  effect on crop, wheat (level): 0
[2]
  weed control effect, Abutilon theophrasti (level): 7 (Level 7: above 70% growth inhibition rate)
  weed control effect, Bidens pilosa (level): 7 (Level 7: above 70% growth inhibition rate)
  weed control effect, Digitaria sanguinalis (level): 7 (Level 7: above 70% growth inhibition rate)
  weed control effect, Echinochloa crus-galli (level): 10
  weed control effect, Rorippa indica (level): 10
  weed control effect, Setaria viridis (level): 9 (Level 9: above 90% growth inhibition rate)

## CCOc1c(C(=O)Oc2c(C(=O)c3ccc(S(C)(=O)=O)c(COCC(F)F)c3Cl)cnn2C)cnn1C [Compound 57]
[1]
  effect on crop, corn (level): 0
  effect on crop, rice (level): 3 (Level 3: above 20% growth inhibition rate)
  effect on crop, wheat (level): 0
[2]
  weed control effect, Abutilon theophrasti (level): 7 (Level 7: above 70% growth inhibition rate)
  weed control effect, Bidens pilosa (level): 7 (Level 7: above 70% growth inhibition rate)
  weed control effect, Digitaria sanguinalis (level): 7 (Level 7: above 70% growth inhibition rate)
  weed control effect, Echinochloa crus-galli (level): 10
  weed control effect, Rorippa indica (level): 10
  weed control effect, Setaria viridis (level): 9 (Level 9: above 90% growth inhibition rate)
